This is an account of results in ChEMBL document CHEMBL1123432, “Methotrexate analogues. 28. Synthesis and biological evaluation of new gamma-monoamides of aminopterin and methotrexate” (J Med Chem, 1986).

Values joined by “and” are separate entries in the source; they are usually repeats but may differ in a detail not shown here. Identical values can stand only once.

The test system of assay [1] is L1210. The assay is described as follows: Compound was tested for its inhibitory concentration to inhibit the growth of wild type L1210 cells. In kind it is functional, cell-based, Mus musculus.
The subject of assay [2] is L1210. The assay is described as follows: Compound was tested for its inhibitory concentration to inhibit the growth of wild type L1210 cells and a subline ( L1210 / R81 ). In kind it is functional, cell-based. The conditions noted are these: Mus musculus.
In assay [3] the target is T1, Dihydrofolate reductase (Mus musculus, UniProt P00375).
T1 sequence (P00375 whole entry): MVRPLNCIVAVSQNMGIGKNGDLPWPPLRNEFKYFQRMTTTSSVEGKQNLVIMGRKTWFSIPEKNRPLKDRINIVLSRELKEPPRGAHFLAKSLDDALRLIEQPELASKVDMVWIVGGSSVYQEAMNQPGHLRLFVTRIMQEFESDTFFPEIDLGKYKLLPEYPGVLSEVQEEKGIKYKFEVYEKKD
The assay is described as follows: Compound was tested for its inhibitory concentration to inhibit the enzyme Dihydro Folate Reductase ( DHFR ) from murine L1210 leukemia cells. It counts as cell-based.

Assay [4] is filed under the species Mus musculus. The experiment in a line: Compound was tested against weight change in mice with L1210 leukemia cells on 10 th Day at Dose 60 mg / kg. As to conditions: at 60 mg/kg.
In assay [5] the target is T1, Dihydrofolate reductase. The experiment in a line: biochemical.
Description: Compound was tested for its inhibitory concentration to inhibit the enzyme Dihydro Folate Reductase (DHFR) from murine L1210 leukemia cells.
For assay [6], the species on record is Mus musculus. The experiment in a line: Compound was tested against weight change in mice with L1210 leukemia cells on 10 th Day at Dose 20 mg / kg. As to conditions: at 20 mg/kg.
Assay [7] concerns Mus musculus. The experiment in a line: Increase in life span of mice with L1210 leukemia cells at a dose of 80 mg/kg in expt 1. It counts as functional.
Assay [8] deals with Mus musculus. The experiment in a line: Median Survival days of mice infected with L1210 leukemia cells at dose 40 mg/kg relative to that of 9 days for control in expt 1. It counts as functional.
The species entered for assay [9] is Mus musculus. The assay is described as follows: Compound was tested against weight change in mice with L1210 leukemia cells on 10 th Day at Dose 40 mg / kg. The conditions noted are these: at 40 mg/kg.
Assay [10] concerns L1210. The assay is described as follows: Compound was tested for its inhibitory concentration to inhibit the growth of wild type L1210 cells and a subline (L1210 / R81). It counts as functional, cell-based. As to conditions: Mus musculus.
Assay [11] deals with Mus musculus. The assay is described as follows: Median Survival days of mice infected with L1210 leukemia cells at dose 100 mg/kg relative to that of 9 days for control in expt 2. In kind it is functional.
The species entered for assay [12] is Mus musculus. The experiment in a line: Compound was tested against weight change in mice with L1210 leukemia cells on 10 th Day at Dose 80 mg / kg. The conditions noted are these: at 80 mg/kg.
Assay [13] concerns Mus musculus. The experiment in a line: Increase in life span of mice with L1210 leukemia cells at a dose of 40 mg/kg in expt 1. In kind it is functional.
The species entered for assay [14] is Mus musculus. The experiment in a line: Compound was tested against weight change in mice with L1210 leukemia cells on 7 th Day at Dose 100 mg / kg. It counts as functional. As to conditions: at 100 mg/kg.
Assay [15] concerns Mus musculus. The experiment in a line: Median Survival days of mice infected with L1210 leukemia cells at dose 20 mg/kg relative to that of 9 days for control in expt 1. In kind it is functional.
The target in assay [16] is T2, Dihydrofolate reductase (Mus musculus) (UniProt P00375).
T2 sequence (whole entry): T1 sequence (P00375 whole entry)
The conditions noted are these: L1210.
Description: Compound was tested for inhibition of the enzyme DiHydroFolate Reductase (DHFR) from murine L1210 leukemia cells

Assay [17] relates to Mus musculus. The assay is described as follows: Increase in life span of mice with L1210 leukemia cells at a dose of 60 mg/kg in expt 1. It counts as functional.
Assay [18] relates to Mus musculus. The assay is described as follows: Increase in life span of mice with L1210 leukemia cells at a dose of 100 mg/kg in expt 1. It counts as functional.
The test system of assay [19] is Mus musculus. The assay is described as follows: Median Survival days of mice infected with L1210 leukemia cells at dose 80 mg/kg relative to that of 9 days for control in expt 1. In kind it is functional.
Assay [20] concerns Mus musculus. The assay is described as follows: Median Survival days of mice infected with L1210 leukemia cells at dose 60 mg/kg relative to that of 9 days for control in expt 2. In kind it is functional.
Assay [21] concerns Mus musculus. The assay is described as follows: Median Survival days of mice infected with L1210 leukemia cells at dose 80 mg/kg relative to that of 9 days for control in expt 2. In kind it is functional.
In assay [22] the test system is Mus musculus. The assay is described as follows: Increase in life span of mice with L1210 leukemia cells at a dose of 80 mg/kg. In kind it is functional.
Assay [23] has as its system Mus musculus. The experiment in a line: Increase in life span of mice with L1210 leukemia cells at a dose of 100 mg/kg. In kind it is functional.
Assay [24] deals with Mus musculus. The assay is described as follows: Increase in life span of mice with L1210 leukemia cells at a dose of 40 mg/kg in exp 1. In kind it is functional.
Assay [25] concerns Mus musculus. The assay is described as follows: Increase in life span of mice with L1210 leukemia cells at a dose of 80 mg/kg in exp 1. In kind it is functional.

For orientation: IC50 means the point on the concentration scale where inhibition reaches its midpoint. Consider `CN(Cc1cnc2nc(N)nc(N)c2n1)c1ccc(C(=O)NC(CCC(=O)Nc2ccc(O)c(O)c2)C(=O)O)cc1` (stereo unspecified), for which the half-maximal inhibitory concentration (IC50) with L1210 [1] (l1210) is 30 nM and 8.4 nM; with L1210 [2], 38000 nM; on Dihydrofolate reductase [3] it was 31 nM.
By ILS is commonly meant how much longer treated animals lived than controls. A higher ILS goes with much gain in survival. As for `CN(Cc1cnc2nc(N)nc(N)c2n1)c1ccc(C(=O)NC(CCC(=O)Nc2ccc3c(c2)OCO3)C(=O)O)cc1` (stereo unspecified), the Weight change in the assay listed under Mus musculus [4] is 3%; in the assay listed under Mus musculus [6] it was 11%; in the assay filed under Mus musculus [9] it was 10%; in the assay filed under Mus musculus [12], 6% and -5%; in the assay listed under Mus musculus [14], 1%. Besides, the IC50 was 42 nM against Dihydrofolate reductase [5]; 2.9 nM in the assay on L1210 [1] (Mus musculus, L1210); 25000 nM in the assay on L1210 [10]. The compound further came in with an ILS at 80 mg/kg in the assay with Mus musculus [7] of 67%. Moreover, the Survival in the assay with Mus musculus [8] came to 13 days; in the assay with Mus musculus [11], 16 days; in the assay on Mus musculus [15], 11 days; in the assay with Mus musculus [19] it was 15 days; in the assay with Mus musculus [20], 14 days; in the assay with Mus musculus [21], 16 days. In the assay with Mus musculus [13], this compound had an ILS at 40 mg/kg of 78%. In addition, the IC50/[E] in [16] came out at 1.1. The same compound came in with an ILS at 60 mg/kg in the assay with Mus musculus [17] of 56%. Moreover, the ILS at 100 mg/kg in the assay on Mus musculus [18] came out at 78%.
Consider `Nc1nc(N)c2nc(CNc3ccc(C(=O)NC(CCC(=O)NCc4c(Cl)cccc4Cl)C(=O)O)cc3)cnc2n1` (stereo unspecified), for which the ILS at 80 mg/kg in the assay with Mus musculus [22] and with Mus musculus [25] was 44% throughout. The IC50 is 80 nM against Dihydrofolate reductase [5]; 3.7 nM in the assay with L1210 [1] (Mus musculus, L1210); 2 nM in the assay with L1210 [1] (l1210); 61000 nM in the assay with L1210 [10]. Also, the Survival worked out at 13 days in the assay on Mus musculus [8], 15 days in the assay with Mus musculus [11], 14 days in the assay with Mus musculus [19] and 13 days with Mus musculus [21]. Besides, the Weight change in the assay filed under Mus musculus [9] is 6%; in the assay listed under Mus musculus [12], 3% and 9%; in the assay listed under Mus musculus [14] it was -3%. This compound showed an ILS at 100 mg/kg in the assay with Mus musculus [23] of 67%. In the assay with Mus musculus [24], the ILS at 40 mg/kg was found to be 56%. Also, in assay [16], the IC50/[E] stood at 2.
With `Nc1nc(N)c2nc(CNc3ccc(C(=O)NC(CCC(=O)Nc4ccc(O)c(O)c4)C(=O)O)cc3)cnc2n1` (stereo unspecified), the half-inhibitory concentration (IC50) with L1210 [1] (l1210) is 37 nM and 6 nM; in the assay with L1210 [2] it was 23000 nM; against Dihydrofolate reductase [3], 57 nM.
